Results: patent publication US20200016133A1, “PREVENTION AND TREATMENT OF THROMBOSIS IN MEDICALLY ILL PATIENTS” (Portola Pharmaceuticals, Inc., priority 2011, published 2020)

Test: effect of co-administered P-glycoprotein (Pgp) inhibitor on betrixaban exposure
Type: in vivo
Conditions: with concomitant Pgp inhibitor
Experimental: In some embodiments, a P-glycoprotein (Pgp) inhibitor is concomitantly administered to the patient. […] In one aspect, when used together with a Pgp inhibitor, betrixaban is administered at about 40 mg, or alternatively about 35 mg, or 30, or 25, or 20, or 15, or 10 mg daily. The same amount is applicable to patients who experience kidney insufficiency.

exposure of betrixaban: increases the exposure
SMILES: COc1ccc(NC(=O)c2ccc(C(=N)N(C)C)cc2)c(C(=O)Nc2ccc(Cl)cn2)c1 [betrixaban, [2-({4-[(dimethylamino)iminomethyl]phenyl}carbonylamino)-5-methoxyphenyl]-N-(5-chloro(2-pyridyl))carboxamide]
